Data published in ChEMBL document CHEMBL4808181, “Hydrophobic Pocket Occupation Design of Difluoro-Biphenyl-Diarylpyrimidines as Non-Nucleoside HIV-1 Reverse Transcriptase Inhibitors: from N-Alkylation to Methyl Hopping on the Pyrimidine Ring” (J Med Chem, 2021).
pEC50, pIC50: −log10 of the molar value. One block for each compound: values may come before it.

What was measured:
[1] = Metabolic stability in human liver microsomes; type: ADME, Microsome
[2] = Tmax in Wistar rat at 5 mg/kg, po; type: ADME, organism-based; conditions: in vivo
[3] = target: Human immunodeficiency virus type 1 reverse transcriptase (Human immunodeficiency virus 1, UniProt Q72547, L100I); assay: Inhibition of HIV-1 p66/p51 reverse transcriptase L100I mutant incubated for 40 mins by picogreen dye-based spectrofluorometric analysis
[4] = Metabolic stability in rat liver microsomes; type: ADME, Microsome
[5] = Cmax in Wistar rat at 5 mg/kg, po; type: ADME, organism-based; parameters: route oral, dose 5 mg/kg; conditions: in vivo
[6] = Acute toxicity in healthy female mouse assessed as behavioral abnormalities at 2 g/kg, ig measured for 2 weeks; conditions: in vivo, po, 2000 mg/kg, 336 h
[7] = Toxicity in pregnant mouse assessed as brain damage at 2 g/kg, ig monitored for 2 weeks by HE staining based assay; type: tissue-based; conditions: in vivo, po, 2000 mg/kg, 336 h
[8] = MRTinfinity in Wistar rat at 5 mg/kg, po; type: ADME, organism-based; conditions: in vivo
[9] = test system: Human immunodeficiency virus 1; assay: Antiviral activity against HIV-1 infected in human MT-4 cells assessed as reduction in virus-induced cytopathic effect incubated for 5 days by MTT assay; type: functional, organism-based; conditions: Human immunodeficiency virus 1, MT4, 120 h
[10] = Acute toxicity in healthy mouse assessed as death at 2 g/kg, ig; conditions: in vivo, po, 2000 mg/kg
[11] = Toxicity in healthy female mouse assessed as heart damage at 2 g/kg, ig monitored for 2 weeks by HE staining based assay; type: tissue-based; conditions: in vivo, po, 2000 mg/kg, 336 h
[12] = Inhibition of HIV-1 p66/p51 reverse transcriptase E138K mutant incubated for 40 mins by picogreen dye-based spectrofluorometric analysis; parameters: species or system Human immunodeficiency virus 1
[13] = Half life in Wistar rat at 5 mg/kg, po; type: ADME, organism-based; conditions: in vivo
[14] = Metabolic stability in mouse liver microsomes assessed as half life; type: ADME, Microsome
[15] = Toxicity in pregnant mouse assessed as liver damage at 2 g/kg, ig monitored for 2 weeks by HE staining based assay; type: tissue-based; conditions: in vivo, po, 2000 mg/kg, 336 h
[16] = Acute toxicity in pregnant mouse assessed as death at 2 g/kg, ig; conditions: in vivo, po, 2000 mg/kg
[17] = Metabolic stability in rat liver microsomes assessed as half life; type: ADME, Microsome
[18] = AUC in Wistar rat at 1 mg/kg, iv; type: ADME, organism-based; parameters: dose 1 mg/kg; conditions: in vivo
[19] = AUCinfinity in Wistar rat at 1 mg/kg, iv; type: ADME, organism-based; parameters: route intravenous, time infinity, dose 1 mg/kg; conditions: in vivo
[20] = Toxicity in pregnant mouse assessed as spleen damage at 2 g/kg, ig monitored for 2 weeks by HE staining based assay; type: tissue-based; conditions: in vivo, po, 2000 mg/kg, 336 h
[21] = Toxicity in healthy female mouse assessed as liver damage at 2 g/kg, ig monitored for 2 weeks by HE staining based assay; type: tissue-based; conditions: in vivo, po, 2000 mg/kg, 336 h
[22] = Toxicity in pregnant mouse assessed as heart damage at 2 g/kg, ig monitored for 2 weeks by HE staining based assay; type: tissue-based; conditions: in vivo, po, 2000 mg/kg, 336 h
[23] = Acute toxicity in pregnant mouse assessed as increase in body weight at 2 g/kg, ig; conditions: in vivo, po, 2000 mg/kg
[24] = Acute toxicity in pregnant mouse assessed as offspring survival rate at 2 g/kg, ig; conditions: in vivo, po, 2000 mg/kg
[25] = Toxicity in healthy female mouse assessed as brain damage at 2 g/kg, ig monitored for 2 weeks by HE staining based assay; type: tissue-based; conditions: in vivo, po, 2000 mg/kg, 336 h
[26] = target: Human immunodeficiency virus type 1 reverse transcriptase (Human immunodeficiency virus 1, UniProt Q72547, Y181C); assay: Inhibition of HIV-1 p66/p51 reverse transcriptase Y181C mutant incubated for 40 mins by picogreen dye-based spectrofluorometric analysis
[27] = target: Human immunodeficiency virus type 1 reverse transcriptase (Human immunodeficiency virus 1, UniProt Q72547, K103N); assay: Inhibition of HIV-1 p66/p51 reverse transcriptase K103N mutant incubated for 40 mins by picogreen dye-based spectrofluorometric analysis
[28] = AUCinfinity in Wistar rat at 5 mg/kg, po; type: ADME, organism-based; parameters: route oral, time infinity, dose 5 mg/kg; conditions: in vivo
[29] = Cytotoxicity against in human MT-4 cells after 5 days by MTT assay; type: cell-based, MT4; conditions: time 5 day
[30] = Selectivity index, ratio of CC50 for cytotoxicity against human MT-4 cells to EC50 for inhibition of HIV-1 p66/51 reverse transcriptase K103N mutant; type: toxicity, cell-based; conditions: read-out: Ratio CC50/EC50
[31] = Selectivity index, ratio of CC50 for cytotoxicity against human MT-4 cells to EC50 for inhibition of HIV-1 p66/51 reverse transcriptase E138K mutant; type: toxicity, cell-based; conditions: read-out: Ratio CC50/EC50
[32] = target: Human immunodeficiency virus type 1 reverse transcriptase (Human immunodeficiency virus 1, UniProt Q72547); assay: Inhibition of recombinant wild type p66/p51 HIV1 reverse transcriptase incubated for 40 mins by picogreen dye-based spectrofluorometric analysis
[33] = Acute toxicity in healthy female mouse assessed as increase in body weight at 2 g/kg, ig; conditions: in vivo, po, 2000 mg/kg
[34] = AUC in Wistar rat at 5 mg/kg, po; type: ADME, organism-based; parameters: dose 5 mg/kg; conditions: in vivo
[35] = Selectivity index, ratio of CC50 for cytotoxicity against human MT-4 cells to EC50 for inhibition of HIV-1 p66/51 reverse transcriptase Y181C mutant; type: toxicity, cell-based; conditions: read-out: Ratio CC50/EC50
[36] = Toxicity in healthy female mouse assessed as lung damage at 2 g/kg, ig monitored for 2 weeks by HE staining based assay; type: tissue-based; conditions: in vivo, po, 2000 mg/kg, 336 h
[37] = test system: Human immunodeficiency virus type 1 reverse transcriptase (Human immunodeficiency virus 1), Q72547 [K103N]; assay: Potency index, ratio of EFV EC50 to test compound EC50 for inhibition of HIV-1 p66/p51 reverse transcriptase K103N mutant
[38] = Selectivity index, ratio of CC50 for human MT-4 cells to EC50 for HIV-1 infected in MT-4 cells; type: toxicity, cell-based; conditions: read-out: Ratio CC50/EC50
[39] = Acute toxicity in pregnant mouse assessed as stillborn fetus at 2 g/kg, ig; conditions: in vivo, po, 2000 mg/kg
[40] = Toxicity in pregnant mouse assessed as kidney damage at 2 g/kg, ig monitored for 2 weeks by HE staining based assay; type: tissue-based; conditions: in vivo, po, 2000 mg/kg, 336 h
[41] = Toxicity in pregnant mouse assessed as lung damage at 2 g/kg, ig monitored for 2 weeks by HE staining based assay; type: tissue-based; conditions: in vivo, po, 2000 mg/kg, 336 h
[42] = test system: Human immunodeficiency virus type 1 reverse transcriptase (Human immunodeficiency virus 1), Q72547 [K103N]; assay: Potency index, ratio of NVP EC50 to test compound EC50 for inhibition of HIV-1 p66/p51 reverse transcriptase K103N mutant
[43] = Half life in Wistar rat at 1 mg/kg, iv; type: ADME, organism-based; conditions: in vivo
[44] = Metabolic stability in mouse liver microsomes assessed as intrinsic clearance per mg protein; type: ADME, Microsome
[45] = Metabolic stability in mouse liver microsomes; type: ADME, Microsome
[46] = Selectivity index, ratio of CC50 for cytotoxicity against human MT-4 cells to EC50 for inhibition of HIV-1 p66/51 reverse transcriptase L100I mutant; type: toxicity, cell-based; conditions: read-out: Ratio CC50/EC50
[47] = Acute toxicity in pregnant mouse assessed as behavioral abnormalities at 2 g/kg, ig measured for 2 weeks; conditions: in vivo, po, 2000 mg/kg, 336 h
[48] = Toxicity in healthy female mouse assessed as kidney damage at 2 g/kg, ig monitored for 2 weeks by HE staining based assay; type: tissue-based; conditions: in vivo, po, 2000 mg/kg, 336 h
[49] = MRTinfinity in Wistar rat at 1 mg/kg, iv; type: ADME, organism-based; conditions: in vivo
[50] = Acute toxicity in pregnant mouse assessed as abortion at 2 g/kg, ig; conditions: in vivo, po, 2000 mg/kg
[51] = Toxicity in healthy female mouse assessed as spleen damage at 2 g/kg, ig monitored for 2 weeks by HE staining based assay; type: tissue-based; conditions: in vivo, po, 2000 mg/kg, 336 h
[52] = Metabolic stability in rat liver microsomes assessed as intrinsic clearance per mg protein; type: ADME, Microsome
[53] = Metabolic stability in human liver microsomes assessed as intrinsic clearance per mg protein; type: ADME, Microsome; conditions: read-out: CLH
[54] = Selectivity index, ratio of CC50 for cytotoxicity against human MT-4 cells to EC50 for inhibition of HIV-1 p66/51 reverse transcriptase Y188L mutant; type: toxicity, cell-based; conditions: read-out: Ratio CC50/EC50
[55] = Inhibition of HIV-1 p66/p51 reverse transcriptase Y188L mutant incubated for 40 mins by picogreen dye-based spectrofluorometric analysis; parameters: species or system Human immunodeficiency virus 1

k el [1]: 0.000783 s⁻¹
SMILES: Cc1cc(-c2ccc(C#N)cc2)cc(C)c1Nc1ccnc(Nc2ccc(C#N)cc2)n1

SMILES: Cc1cnc(Nc2ccc(C#N)cc2)nc1Nc1c(F)cc(-c2ccc(C#N)cc2)cc1F
Tmax [2]: 0.67 h
pEC50 [3]: 7.79
k el [4]: 0.000237 s⁻¹
Cmax [5]: 38.4 ng/mL
Activity [6]: Non-Toxic
Activity [7]: Non-Toxic
MRT inf [8]: 3.5 h
pEC50 [9]: 9.00
Activity [10]: Non-Toxic
Activity [11]: Non-Toxic
pEC50 [12]: 8.08
half-life [13]: 2.13 h
t1/2 [14]: 0.768 h
Activity [15]: Non-Toxic
Activity [16]: Non-Toxic
t1/2 [17]: 0.815 h
AUC [18]: 1080 ng·h/mL
AUC(0-inf) [19]: 1090 ng·h/mL
Activity [20]: Non-Toxic
Activity [21]: Non-Toxic
Activity [22]: Non-Toxic
Activity [23]: Toxic
Activity [24]: Non-Toxic
Activity [25]: Non-Toxic
pEC50 [26]: 7.95
pEC50 [27]: 8.27
AUC(0-inf) [28]: 130 ng·h/mL
CC50 at 120 h [29]: > 285000 nM
selectivity ratio [30]: > 53200
selectivity ratio [31]: > 34200
pIC50 [32]: 7.89
Activity [33]: Toxic
k el [1]: 8.33e-05 s⁻¹
AUC [34]: 115 ng·h/mL
selectivity ratio [35]: > 25500
Activity [36]: Non-Toxic
Ratio EC50 [37]: 17
selectivity ratio [38]: > 208000
Activity [39]: Non-Toxic
Activity [40]: Non-Toxic
Activity [41]: Non-Toxic
Ratio EC50 [42]: 17
half-life [43]: 1.18 h
CLH [44]: 30.1 µL/min
k el [45]: 0.00025 s⁻¹
selectivity ratio [46]: > 17500
Activity [47]: Non-Toxic
Activity [48]: Non-Toxic
MRT inf [49]: 0.86 h
Activity [50]: Non-Toxic
Activity [51]: Non-Toxic
CLH [52]: 28.4 µL/min
microsomal CLint [53]: 5 µL/min/mg

SMILES: CCCN(c1ccnc(Nc2ccc(C#N)cc2)n1)c1c(F)cc(-c2ccc(C#N)cc2)cc1F
pEC50 [3]: 7.02
pEC50 [9]: 7.72
pEC50 [12]: 7.46
pEC50 [26]: 7.16
pEC50 [27]: 6.97
selectivity ratio [54]: 114
CC50 at 120 h [29]: 212000 nM
selectivity ratio [30]: 1960
selectivity ratio [31]: 6090
pIC50 [32]: 7.39
selectivity ratio [35]: 3090
selectivity ratio [38]: 11300
pEC50 [55]: 5.73
selectivity ratio [46]: 2240

SMILES: CCS(=O)(=O)N(c1ccnc(Nc2ccc(C#N)cc2)n1)c1c(F)cc(-c2ccc(C#N)cc2)cc1F
pEC50 [3]: 6.71
pEC50 [9]: 7.33
pEC50 [12]: 7.15
pEC50 [26]: 6.94
pEC50 [27]: 7.11
selectivity ratio [54]: > 52
CC50 at 120 h [29]: > 125000 nM
selectivity ratio [30]: > 3090
selectivity ratio [31]: > 3460
pIC50 [32]: 6.70
selectivity ratio [35]: > 2110
selectivity ratio [38]: > 5140
pEC50 [55]: 5.33
selectivity ratio [46]: > 1230
